Laboratory results reported in patent publication US6933322B2, “Substituted naphthylenes for the treatment of non-insulin dependent diabetes mellitus” (Wyeth, priority 2002, dated 2005).

What was measured:
diabetic ob/ob mice = test: Hypoglycemic effect in diabetic ob/ob mice; format: in vivo, mouse
Protocol: Hypoglycemic Effect in Diabetic OB/OB Mice
Procedure: In each study, male or female ob/ob (C57 B1/6J) mice and their mean litermates (ob/+ or +/+, Jackson Laboratories) ages 2 to 5 months (10 to 65 g) were randomized according to plasma glucose into 4 groups of 10 mice. The mice were housed 5 per cage and were maintained on normal rodent chow with water ad libitum. Mice receive compound daily by gavage (suspended in 0.5 ml of 0.5% methyl cellulose); dissolved in the drinking water; or admixed in the diet. The dose of compounds given ranges from 2.5 to 200 mg/kg body weight/day. Body weight of fed animals was measured at the beginning of each week and doses for the entire week were calculated using this weight and were expressed in terms of the active moiety of the compound. Control mice receive vehicle only. […]
Measurements: The plasma was isolated by centrifugation and the concentration of glucose was measured enzymatically on an Abbott V. P. Analyzer and the plasma concentration of insulin was determined by radioimmunoassay (Heding, 1972)
Analysis of variance followed by Dunnett's Comparison Test (one-tailed) was used to estimate the significant difference between the plasma glucose values from the control group and the individual compound treated groups (CMS SAS Release 5.18). A compound will be considered active if the difference has a p<0.05.

| Structure (SMILES) | melting point | further results |
| --- | --- | --- |
| O=S(=O)(Nc1ccc2c(OCc3ccc(-c4ccccc4)cc3F)cccc2c1)C(F)(F)F [Example 4, C,C,C-Trifluoro-N-[5-(3-fluoro-biphenyl-4-ylmethoxy)-naphthalen-2-yl]-methanesulfonamide] | 123 to 125 °C | REDUCTION IN PLASMA GLUCOSE Day 1 (6 hr) p.o. (diabetic ob/ob mice; 10 mg/kg): −28% (10 mg/kg); REDUCTION IN PLASMA GLUCOSE Day 3 (6 hr) p.o. (diabetic ob/ob mice; 10 mg/kg): −37% (10 mg/kg) |
| O=S(=O)(Nc1ccc2c(OCc3ccc(-c4cccc(Cl)c4)cc3)cccc2c1)C(F)(F)F [Example 25, N-[5-(3′-Chloro-biphenyl-4-ylmethoxy)-naphthalen-2-yl]-C,C,C-trifluoromethanesulfonamide] | 170 to 171 °C | REDUCTION IN PLASMA GLUCOSE Day 1 (6 hr) p.o. (diabetic ob/ob mice; 10 mg/kg): −22% (10 mg/kg); REDUCTION IN PLASMA GLUCOSE Day 3 (6 hr) p.o. (diabetic ob/ob mice; 10 mg/kg): −24% (10 mg/kg) |
| N#Cc1ccc(C2(COc3cccc4cc(NS(=O)(=O)C(F)(F)F)ccc34)N=CNO2)cc1 (centres unmarked) [Example 61, N-{5-[5-(4-cyano-phenyl)-[1,2,4]-oxadiazol-5-ylmethoxy)-naphthalen-2-yl}-C,C,C-trifluoro-methanesulfonamide] | 184 to 185 °C | – |
| COc1cccc(C2(COc3cccc4cc(NS(=O)(=O)C(F)(F)F)ccc34)N=CNO2)c1 (centres unmarked) [Example 62, N-{5-[5-(3-methoxy-phenyl)-[1,2,4]-oxadiazol-5-ylmethoxy)-naphthalen-2-yl}-C,C,C-trifluoro-methanesulfonamide] | 138 to 140 °C | – |
| COc1ccc(C2(COc3cccc4cc(NS(=O)(=O)C(F)(F)F)ccc34)N=CNO2)cc1 (centres unmarked) [Example 64, N-{5-[5-(4-methoxy-phenyl)-[1,2,4]-oxadiazol-5-ylmethoxy)-naphthalen-2-yl}-C,C,C-trifluoro-methanesulfonamide] | 146 to 148 °C | – |
| O=S(=O)(Nc1ccc2c(OCc3nc(-c4ccc(F)cc4)no3)cccc2c1)C(F)(F)F [Example 65, C,C,C-Trifluoro-N-{5-[3-(4-fluoro-phenyl)-[1,2,4]oxadiazol-5-yl-methoxy]-naphthalen-2-yl}-methanesulfonamide] | 131 to 132 °C | – |
| O=S(=O)(Nc1ccc2c(OCc3nc(-c4cccc(C(F)(F)F)c4)no3)cccc2c1)C(F)(F)F [Example 66, C,C,C-Trifluoro-N-{5-[3-(3-trifluoromethyl-phenyl)-[1,2,4]oxadiazol-5-ylmethoxy]-naphthalen-2-yl}-methanesulfonamide] | 155 to 156 °C | – |
| NC(=O)Nc1ccc2c(OCc3ccccc3-c3ccccc3)cccc2c1 [Example 74, [5-(Biphenyl-2-ylmethoxy)-naphthalen-2-yl]-urea] | 159 to 161 °C | – |
| COc1ccc(-c2ccc(Cl)cc2)cc1COc1cccc2cc(NC(N)=O)ccc12 [Example 76, [5-(4′-Chloro-4-methoxy-biphenyl-3-ylmethoxy)-naphthalen-2-yl]-urea] | 200 °C (dec.) | – |
| NC(=O)Nc1ccc2c(OCc3ccc(-c4ccc(Cl)cc4)cc3)cccc2c1 [Example 77, [5-(4′-Chloro-biphenyl-4-ylmethoxy)-naphthalen-2-yl]-urea] | 182 °C (dec.) | – |
| O=S(=O)(Nc1ccc2c(OCc3nc4ccccc4s3)cccc2c1)C(F)(F)F [Example 78, N-[5-(Benzothiazol-2-ylmethoxy)-naphthalen-2-yl]-C,C,C-trifluoro-methanesulfonamide] | 190 to 192 °C | – |
| Cc1oc(-c2ccccc2)nc1COc1cccc2cc(NS(=O)(=O)C(F)(F)F)ccc12 [Example 79, N-[5-(5-methyl-2-phenyl-oxazol-4-ylmethoxy)naphthalen-2-yl]C,C,C-trifluoromethanesulfonamide] | 192 to 194 °C | – |
| O=S(=O)(Nc1ccc2c(OCc3coc(-c4ccccc4)n3)cccc2c1)C(F)(F)F [Example 80, N-[5-(2-phenyl-oxazol-4-ylmethoxy)naphthalen-2-yl]C,C,C-trifluoromethanesulfonamide] | 195 to 197 °C | – |
| Cc1oc(-c2ccc(C(F)(F)F)cc2)nc1COc1cccc2cc(NS(=O)(=O)C(F)(F)F)ccc12 [Example 81] | – | REDUCTION IN PLASMA GLUCOSE Day 1 (6 hr) p.o. (diabetic ob/ob mice; 5 mg/kg): −28% (5 mg/kg); REDUCTION IN PLASMA GLUCOSE Day 3 (6 hr) p.o. (diabetic ob/ob mice; 5 mg/kg): −33% (5 mg/kg) |
| Cc1oc(-c2ccc(F)cc2)nc1COc1cccc2cc(NS(=O)(=O)C(F)(F)F)ccc12 [Example 82, N-{5-[5-methyl-2-(4-fluoro-phenyl)-oxazol-4-ylmethoxy]naphthalen-2-yl}C,C,C-trifluoromethanesulfonamide] | 178 to 180 °C | – |
| O=S(=O)(Nc1ccc2c(OCc3ccc4ccccc4c3)cccc2c1)C(F)(F)F [Example 83, N-[5-(Naphthalen-2-ylmethoxy)-naphthalen-2-yl]-C,C,C-trifluoro-methanesulfonamide] | 140 to 142 °C | – |
| O=S(=O)(Nc1ccc2c(OCc3coc(-c4ccc(Cl)cc4)n3)cccc2c1)C(F)(F)F [Example 84, N-{5-[2-(4-Chloro-phenyl)-oxazol-4-ylmethoxy]naphthalen-2-yl}C,C,C-trifluoromethanesulfonamide] | 198 to 200 °C | – |
| CC(C)(C)c1ccc(-c2nc(COc3cccc4cc(NS(=O)(=O)C(F)(F)F)ccc34)co2)cc1 [Example 85, N-{5-[2-(4-tert-Butyl-phenyl)-oxazol-4-ylmethoxy]naphthalen-2-yl}C,C,C-trifluoromethanesulfonamide] | 165 to 167 °C | – |
| O=S(=O)(Nc1ccc2c(OCc3coc(-c4ccc(Br)cc4)n3)cccc2c1)C(F)(F)F [Example 86, N-{5-[2-(4-Bromo-phenyl)-oxazol-4-ylmethoxy]naphthalen-2-yl}C,C,C-trifluoromethanesulfonamide] | 205 to 207 °C | – |
| O=S(=O)(Nc1ccc2c(OCc3coc(-c4ccc(C(F)(F)F)cc4)n3)cccc2c1)C(F)(F)F [Example 87, N-{5-[2-(4-trifluoromethyl-phenyl)-oxazol-4-ylmethoxy]naphthalen-2-yl}C,C,C-trifluoromethanesulfonamide] | 205 to 207 °C | – |
| Cc1ccccc1-c1nc(COc2cccc3cc(NS(=O)(=O)C(F)(F)F)ccc23)co1 [Example 88, N-[5-[2-o-tolyl-oxazol-4-ylmethoxy)naphthalen-2-yl]C,C,C-trifluoromethanesulfonamide] | 127 to 130 °C | – |
